Experimental data taken from patent US20060004029A1, “Nitrogen-containing aromatic derivatives” (priority 2003, published 2006).

Key:
VEGFR2 = target: T1, VEGFR2 (Homo sapiens, UniProt P35968); test: Inhibition against receptor tyrosine kinase activity (HTRF), VEGFR2; assay type: biochemical; settings: His6-VEGFR2 cytoplasmic domain, biotin-poly(GT), HTRF; read-out: VEGFR2 kinase IC50
T1 construct: coding for the cytoplasmic domain, beginning with lysine 791 and including the termination codon; made in house; host or cells: Sf9 insect cells, baculovirus (pFastBacHis)
Experimental: This assay is used to determine inhibition of a test substance on tyrosine kinase activity. […] Expression in an appropriate expression system can produce a polypeptide with tyrosine kinase activity. […] The recombinant construct was transfected into insect cells (Spondoptea frugiperda9 (Sf9)) to prepare a recombinant Baculovirus.
For expression of the VEGFR2 tyrosine kinase, Sf9 cells were infected with the VEGFR2 recombinant virus and collected after 48 hours. The collected cells were rinsed with ice-cooled phosphate buffered saline (PBS) and then resuspended using 20 ml of ice-cooled Lysis Buffer (50 mM Tris-HCl (pH 8.5), 5 mM 2-mercaptoethanol, 100 mM KCl, 1 mM phenylmethylsulfonyl fluoride, 1% (v/v) NP-40) per 1.5×10^8 cells. The suspension was centrifuged at 12,000 rpm for 30 minutes at 4° C. and the supernatant was obtained. The supernatant was added to a Ni-NTA agarose column (3 ml, purchased from Qiagen) equilibrated with Buffer A {20 mM Tris-HCl (pH 8.5), 5 mM 2-mercaptoethanol, 500 mM KCl, 20 mM imidazole, 10% (v/v) glycerol}. The column was washed with 30 ml of Buffer A, and then with 6 ml of Buffer B {20 mM Tris-HCl (pH 8.5), 5 mM 2-mercaptoethanol, 1M KCl, 10% (v/v) glycerol}, and finally with 6 ml of Buffer A. After washing, it was eluted with 6 ml of Buffer C {20 mM Tris-HCl (pH 8.5), 5 mM 2-mercaptoethanol, 100 mM KCl, 100 mM imidazole, 10% (v/v) glycerol}. The eluate was placed on a dialysis membrane (purchased from Spectrum Laboratories) and dialyzed with a dialysis buffer {20 mM Tris-HCl (pH 7.5), 10% (v/v) glycerol, 1 mM dithiothreitol, 0.1 mM Na3VO4, 0.1 mM EGTA}. […] Using the same method for the cytoplasmic domains of FGFR1, PDGFRβ and HGFR yielded respective recombinant proteins fused with 6 histidine residues at the N-terminal (His6-FGFR1, His6-PDGFRβ or His6-HGFR).
The tyrosine kinase reaction was conducted as follows. […] Next, 10 μl of 4 μM ATP (diluted with distilled water) was added prior to incubation at 30° C. for 10 minutes, and then 10 μl of 500 mM EDTA (pH 8.0) was added.
The tyrosine phosphorylation rate for the biotin-poly(GT) was expressed as the delta F % value as described in the HTRF Standard Experiment Methods text by CIS Diagnostics Co. The delta F % value in the presence of the test substance was determined as a ratio (%) with the delta F % value with addition of His6-VEGFR2 in the absence of the test substance defined as 100% and the delta F % value in the absence of both the test substance and His6-VEGFR2 defined as 0%.

FGFR1 = target: T2, FGFR1 (Homo sapiens, UniProt P11362); test: Inhibition against receptor tyrosine kinase activity (HTRF), FGFR1; assay type: biochemical; settings: His6-FGFR1 cytoplasmic domain, biotin-poly(GT), HTRF; read-out: FGFR1 kinase IC50
T2 construct: made in house; host or cells: Sf9 insect cells, baculovirus (pFastBacHis), by the same method as VEGFR2
Text: This assay is used to determine inhibition of a test substance on tyrosine kinase activity. DNA coding for the cytoplasmic domain of VEGFR2 is obtained by total cDNA synthesis (Edwards M, International Biotechnology Lab 5(3), 19-25, 1987) or by cloning. Expression in an appropriate expression system can produce a polypeptide with tyrosine kinase activity. […] For VEGFR2 (GenBank Accession No. L04947), the 1.7 kb DNA fragment described by Terman et al. (Oncogene, 6(9), 1677-1683, 1991), coding for the cytoplasmic domain, beginning with lysine 791 and including the termination codon, was isolated from a human placental cDNA library (purchased from Clontech Laboratories, Inc.) and cloned in a Baculovirus expression vector (pFastBacHis, purchased from GIBCO BRL). The recombinant construct was transfected into insect cells (Spondoptea frugiperda9 (Sf9)) to prepare a recombinant Baculovirus. (Instructions for preparation and use of recombinant Baculovirus may be found in standard texts, such as “Bac-To-Bac Baculovirus Expression System” (GIBCO BRL).) The cytoplasmic fragment starting from lysine 398 (FGFR1, GenBank Accession No. X52833), the cytoplasmic fragment starting from lysine 558 (PDGFRβ, GenBank Accession No. M21616) or the cytoplasmic fragment starting from lysine 974 (HGFR, GenBank Accession No. J02958) may be cloned and expressed by the same method for use in assays for other tyrosine kinases. EGFR was purchased from Sigma Co. (Product No. E-2645).
For expression of the VEGFR2 tyrosine kinase, Sf9 cells were infected with the VEGFR2 recombinant virus and collected after 48 hours. The collected cells were rinsed with ice-cooled phosphate buffered saline (PBS) and then resuspended using 20 ml of ice-cooled Lysis Buffer (50 mM Tris-HCl (pH 8.5), 5 mM 2-mercaptoethanol, 100 mM KCl, 1 mM phenylmethylsulfonyl fluoride, 1% (v/v) NP-40) per 1.5×10^8 cells. The suspension was centrifuged at 12,000 rpm for 30 minutes at 4° C. and the supernatant was obtained. The supernatant was added to a Ni-NTA agarose column (3 ml, purchased from Qiagen) equilibrated with Buffer A {20 mM Tris-HCl (pH 8.5), 5 mM 2-mercaptoethanol, 500 mM KCl, 20 mM imidazole, 10% (v/v) glycerol}. The column was washed with 30 ml of Buffer A, and then with 6 ml of Buffer B {20 mM Tris-HCl (pH 8.5), 5 mM 2-mercaptoethanol, 1M KCl, 10% (v/v) glycerol}, and finally with 6 ml of Buffer A. After washing, it was eluted with 6 ml of Buffer C {20 mM Tris-HCl (pH 8.5), 5 mM 2-mercaptoethanol, 100 mM KCl, 100 mM imidazole, 10% (v/v) glycerol}. The eluate was placed on a dialysis membrane (purchased from Spectrum Laboratories) and dialyzed with a dialysis buffer {20 mM Tris-HCl (pH 7.5), 10% (v/v) glycerol, 1 mM dithiothreitol, 0.1 mM Na3VO4, 0.1 mM EGTA}. After dialysis, it was supplied for SDS-electrophoresis, and the recombinant protein (His6-VEGFR2, cytoplasmic domain of VEGFR2 fused with 6 histidine residues at the N-terminus) detected at a molecular weight of approximately 100 kDa with Coumassie Brilliant Blue staining was assayed using BSA (bovine serum albumin, purchased from Sigma Co.) as the standard substance, and stored at −80° C. until use. Using the same method for the cytoplasmic domains of FGFR1, PDGFRβ and HGFR yielded respective recombinant proteins fused with 6 histidine residues at the N-terminal (His6-FGFR1, His6-PDGFRβ or His6-HGFR).
The tyrosine kinase reaction was conducted as follows. In the case of VEGFR2, for example, 10 μl of a kinase reaction solution {200 mM Hepes (pH 7.4), 80 mM MgCl2, 16 mM MnCl2, 2 mM Na3VO4}, 250 ng of biotin-bound poly(Glu4:Tyr1) (biotin-poly(GT), purchased from CIS Diagnostics Co.) (6 μl of a 15-fold dilution with distilled water), 15 ng of His6-VEGFR2 (10 μl of a 240-fold dilution with 0.4% BSA solution) and the test substance dissolved in dimethyl sulfoxide (4 μl of a 100-fold dilution with 0.1% BSA solution) were added into each well of a 96-well round-bottom plate (NUNC Co., Product No. 163320), to a total of 30 μl. […]

T1 sequence (P35968 786-1356 limits assumed): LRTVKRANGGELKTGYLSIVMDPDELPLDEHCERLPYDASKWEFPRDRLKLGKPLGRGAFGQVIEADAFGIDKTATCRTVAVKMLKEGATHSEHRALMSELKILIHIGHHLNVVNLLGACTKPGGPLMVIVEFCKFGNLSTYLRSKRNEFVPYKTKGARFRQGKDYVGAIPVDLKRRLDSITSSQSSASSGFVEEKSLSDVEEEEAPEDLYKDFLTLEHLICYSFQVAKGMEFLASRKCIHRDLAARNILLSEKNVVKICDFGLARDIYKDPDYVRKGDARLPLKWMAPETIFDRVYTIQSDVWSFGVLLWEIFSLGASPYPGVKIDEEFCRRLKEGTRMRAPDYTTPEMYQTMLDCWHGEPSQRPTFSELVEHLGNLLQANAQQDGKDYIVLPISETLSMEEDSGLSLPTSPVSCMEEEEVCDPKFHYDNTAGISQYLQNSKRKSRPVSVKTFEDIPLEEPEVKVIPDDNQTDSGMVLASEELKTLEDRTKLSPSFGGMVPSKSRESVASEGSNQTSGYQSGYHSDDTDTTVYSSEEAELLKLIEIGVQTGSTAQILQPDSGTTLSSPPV
T2 sequence (P11362 398-822 limits assumed): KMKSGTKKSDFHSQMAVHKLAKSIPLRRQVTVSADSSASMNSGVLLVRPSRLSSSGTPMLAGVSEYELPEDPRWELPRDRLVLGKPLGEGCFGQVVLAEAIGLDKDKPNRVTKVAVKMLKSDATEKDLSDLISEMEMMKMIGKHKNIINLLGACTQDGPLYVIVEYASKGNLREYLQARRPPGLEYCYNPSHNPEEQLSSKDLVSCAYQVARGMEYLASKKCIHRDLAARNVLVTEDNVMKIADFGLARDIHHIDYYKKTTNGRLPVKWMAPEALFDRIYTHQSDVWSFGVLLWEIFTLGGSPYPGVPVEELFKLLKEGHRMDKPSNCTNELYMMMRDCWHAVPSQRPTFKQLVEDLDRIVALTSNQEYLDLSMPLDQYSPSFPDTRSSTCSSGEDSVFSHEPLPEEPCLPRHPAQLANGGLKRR

Compound | IC50 (VEGFR2) [nM] | IC50 (FGFR1) [nM]
O=C(Nc1cc(Oc2ccc3c(ccn3C(=O)NC3CC3)c2)ccn1)N1CCCC1 [Example 88, N1-Cyclopropyl-5-(2-((pyrrolidin-1-ylcarbonyl)amino)-4-pyridyl)oxy-1H-1-indolecarboxamide] | 14 | 24
CNC(=O)n1cc(Cl)c2cc(Oc3ccnc(NC(=O)N4CCC(O)CC4)c3)ccc21 [Example 104, N1-Methyl-3-chloro-5-(2-((4-hydroxypiperidino)carbonyl)amino-4-pyridyl)oxy-1H-1-indolecarboxamide] | 3.9 | 19
CNC(=O)Nc1cc(Oc2ccc3c(ccn3C(=O)NC)c2)ccn1 [Example 116, N1-Methyl-5-(2-((methylamino)carbonyl)amino-4-pyridyl)oxy-1H-1-indolecarboxamide] | 14 | 87
CCN(CC)C(=O)Nc1cc(Oc2ccc3c(ccn3C(=O)NC)c2)ccn1 [Example 119, N1-Methyl-5-(2-((diethylamino)carbonyl)amino-4-pyridyl)oxy-1H-1-indolecarboxamide] | 21 | 120
C#CCNC(=O)n1ccc2cc(Oc3ccnc(NC(=O)N4CCCC4)c3)ccc21 [Example 139, N1-(2-Propynyl)-5-(2-((pyrrolidin-1-yl)carbonyl)amino-4-pyridyl)oxy-1H-1-indolecarboxamide] | 6.3 | 190
CNC(=O)n1ccc2cc(Oc3ccnc(NC(=O)N4CCC4)c3)ccc21 [Example 206, N1-Methyl-5-(2-(azetidin-1-ylcarbonyl)amino-4-pyridyl)oxy-1H-1-indolecarboxamide] | 4.1 | 3.5
CCNC(=O)n1ccc2cc(Oc3ccnc(NC(=O)N4CCC4)c3)ccc21 [Example 207, N1-Ethyl-5-(2-(azetidin-1-ylcarbonyl)amino-4-pyridyl)oxy-1H-1-indolecarboxamide] | 4.6 | 12
O=C(Nc1cc(Oc2ccc3c(ccn3C(=O)NC3CC3)c2)ccn1)N1CCC1 [Example 208, N1-Cyclopropyl-5-(2-(azetidin-1-ylcarbonyl)amino-4-pyridyl)oxy-1H-1-indolecarboxamide] | 7.7 | 6.8
CNC(=O)n1ccc2cc(Oc3ccnc(NC(=O)N4CCC(N5CCOCC5)CC4)c3)ccc21 [Example 209, N1-Methyl-5-(2-(((4-(morpholin-4-yl)piperidin-1-yl)carbonyl)amino)pyridin-4-yloxy)-1H-1-indolecarboxamide] | 17 | 29
CNC(=O)n1ccc2cc(Oc3ccnc(NC(=O)N4CCC(N5CCC5)CC4)c3)ccc21 [Example 210, N1-Methyl-5-(2-(((4-(azetidin-1-yl)piperidin-1-yl)carbonyl)amino)pyridin-4-yloxy)-1H-1-indolecarboxamide] | 8.1 | 40
CCN(CC)C1CCN(C(=O)Nc2cc(Oc3ccc4c(ccn4C(=O)NC)c3)ccn2)CC1 [Example 211, N1-Methyl-5-(2-(((4-(diethylamino)piperidin-1-yl)carbonyl)amino)pyridin-4-yloxy)-1H-1-indolecarboxamide] | 45 | 36
CNC(=O)n1ccc2cc(Oc3ccnc(NC(=O)N4CCC(N5CCC(O)CC5)CC4)c3)ccc21 [Example 212, N1-Methyl-5-(2-(((4-(4-hydroxypiperidin-1-yl)piperidin-1-yl)carbonyl)amino)pyridin-4-yloxy)-1H-1-indolecarboxamide] | 8.6 | 19
CCCNC(=O)n1ccc2cc(Oc3ccnc(NC(=O)N4CCCC4)c3)ccc21 [Example 213, N1-Propyl-5-(2-(pyrrolidin-1-ylcarbonyl)amino-4-pyridyl)oxy-1H-1-indolecarboxamide] | 10 | 330
N1-Methyl-5-(2-((4-(2-hydroxy-2-methylpropionyl)piperazin-1-yl)carbonyl)amino-4-pyridyl)oxy-1H-indolecarboxamide [Example 28] | 4.5 | 4.1
